Measured values reported in DBAASP.
≈ marks a conversion by molar mass, not a printed value. Values belong to the compound of their own block, whether it stands above or below them.

Key:
Assay in all cases: ≥ marks a high value that may be exact or a test limit, other limits are often not marked, values filed in µg/mL are converted to µM
[1] = system: Staphylococcus aureus ATCC 25923
[2] = system: Candida albicans ATCC 2002
[3] = system: Pseudomonas aeruginosa CMCCB 10104
[4] = system: Escherichia coli ATCC 25922
[5] = system: Salmonella enterica subsp. enterica serovar Typhimurium C77-31
[6] = system: Staphylococcus epidermidis ATCC 12228
[7] = system: Salmonella enterica subsp. enterica serovar Typhimurium ATCC 14028
[8] = system: Salmonella enterica subsp. enterica serovar Pullorum C79-13
[9] = system: Enterococcus faecalis ATCC 29212
[10] = system: Escherichia coli UB1005
[11] = system: Pseudomonas aeruginosa ATCC 27853
[12] = system: Staphylococcus aureus ATCC 29213
[13] = system: Escherichia coli NCTC 10418
[14] = system: Staphylococcus aureus NCTC 10788
[15] = system: Escherichia coli
[16] = system: Bacillus cereus
[17] = system: Staphylococcus aureus
[18] = system: Bacillus subtilis 168

MIC [13]: ≥ 110 µM | MIC [14]: ≥ 55 µM
SMILES: CC[C@H](C)[C@H](NC(=O)CNC(=O)[C@H](CO)NC(=O)[C@H](CC(C)C)NC(=O)[C@H](Cc1cnc[nH]1)NC(=O)[C@@H]1CCCN1C(=O)[C@H](CC(C)C)NC(=O)[C@H](CC(C)C)NC(=O)[C@H](CCC(=O)O)NC(=O)[C@H](CCCCN)NC(=O)[C@@H](NC(=O)[C@@H](N)Cc1ccccc1)[C@@H](C)CC)C(=O)N[C@H](C(=O)N[C@@H](CC(=O)O)C(=O)N[C@@H](CO)C(=O)N[C@H](C(=O)N[C@@H](C)C(=O)N[C@@H](CC(N)=O)C(=O)N[C@@H](C)C(=O)N[C@H](C(=O)N[C@@H](CCCCN)C(N)=O)[C@@H](C)CC)C(C)C)[C@@H](C)CC [FIKELLPHLSGIIDSVANAIK]

MIC [15]: > 119 µM | MIC [16]: ≥ 119 µM
SMILES: CC[C@H](C)[C@H](NC(=O)[C@H](CCSC)NC(=O)[C@H](CO)NC(=O)[C@H](Cc1ccccc1)NC(=O)[C@@H](NC(=O)[C@H](CO)NC(=O)[C@@H]1CCCN1C(=O)[C@@H](NC(=O)[C@@H](NC(=O)[C@H](CCCCN)NC(=O)[C@H](CO)NC(=O)[C@H](C)NC(=O)[C@H](CC(C)C)NC(=O)[C@H](CCCCN)NC(=O)CNC(=O)[C@@H](NC(=O)[C@@H](NC(=O)[C@@H]1CCCN1)C(C)C)[C@@H](C)CC)C(C)C)C(C)C)C(C)C)C(=O)N[C@@H](CCCCN)C(=O)N[C@@H](CCCN=C(N)N)C(=O)O [PVIGKLASKVVPSVFSMIKR]

MIC [15]: > 130 µM | MIC [16]: ≥ 130 µM
SMILES: CC[C@H](C)[C@H](NC(=O)[C@H](CCCCN)NC(=O)CNC(=O)[C@@H](NC(=O)[C@H](C)NC(=O)[C@H](CO)NC(=O)[C@@H](N)CC(C)C)C(C)C)C(=O)N[C@@H](C)C(=O)N[C@@H](CO)C(=O)N[C@@H](CCCCN)C(=O)N[C@H](C(=O)N[C@H](C(=O)N1CCC[C@H]1C(=O)N[C@@H](CO)C(=O)N[C@H](C(=O)N[C@H](C(=O)NCC(=O)N[C@@H](C)C(=O)N[C@@H](Cc1ccccc1)C(=O)N[C@@H](CCCCN)C(=O)O)[C@@H](C)CC)C(C)C)C(C)C)C(C)C [LSAVGKIASKVVPSVIGAFK]

MIC [17]: > 114 µM | MIC [15]: 114 µM (≈ 256 µg/mL) | MIC [16]: ≥ 114 µM
SMILES: CC(C)C[C@H](NC(=O)[C@@H](N)Cc1ccccc1)C(=O)NCC(=O)N[C@H](C(=O)N[C@H](C(=O)N[C@@H](Cc1ccccc1)C(=O)N[C@@H](CCCCN)C(=O)N[C@@H](CCCCN)C(=O)N[C@@H](C)C(=O)N[C@@H](CO)C(=O)N[C@@H](CCCCN)C(=O)N[C@H](C(=O)N[C@@H](Cc1ccccc1)C(=O)N1CCC[C@H]1C(=O)N[C@@H](C)C(=O)N[C@H](C(=O)N[C@@H](Cc1ccccc1)C(=O)N[C@@H](CCCCN)C(=O)N[C@@H](CCCCN)C(=O)N[C@H](C(=O)O)C(C)C)C(C)C)C(C)C)C(C)C)C(C)C [FLGVVFKKASKVFPAVFKKV]

The remaining lines, values behind:

SMILES: CC[C@H](C)[C@@H]1NC(=O)[C@H](CCCCN)NC(=O)[C@@H](NC(=O)[C@H](CCCCN)NC(=O)[C@H](CC(C)C)NC(=O)[C@H](CC(N)=O)NC(=O)[C@H](CC(=O)O)NC(=O)[C@H](CC(C)C)NC(=O)[C@H](CC(C)C)NC(=O)[C@@H](NC(=O)[C@@H](NC(=O)[C@H](CC(=O)O)NC(=O)[C@H](CCSC)NC(=O)[C@H](CC(N)=O)NC(=O)[C@H](CCCCN)NC(=O)[C@H](C)NC(=O)[C@@H](NC(=O)[C@H](CC(N)=O)NC(=O)[C@H](CCCCN)NC(=O)[C@H](C)NC(=O)[C@@H](NC(=O)[C@H](C)NC(=O)[C@H](CCSC)NC(=O)[C@H](Cc2ccccc2)NC(=O)CN)[C@@H](C)O)C(C)C)C(C)C)[C@@H](C)O)CSSC[C@@H](C(=O)O)NC(=O)[C@H](C)NC(=O)[C@H](CCCCN)NC(=O)[C@H]([C@@H](C)O)NC1=O [GFMATAKNVAKNMDVTLLDNLKCKITKAC]
MIC [1]: 1.3 µM (≈ 4.1 µg/mL) | MIC [2]: 1.3 µM (≈ 4.1 µg/mL) | MIC [3]: 1.3 µM (≈ 4.1 µg/mL) | MIC [4]: 2.61 µM (≈ 8.2 µg/mL)

SMILES: CC[C@H](C)[C@H](NC(=O)[C@H](CCCCN)NC(=O)[C@H](CCCCN)NC(=O)[C@H](Cc1ccccc1)NC(=O)[C@H](CC(C)C)NC(=O)[C@H](CCCCN)NC(=O)[C@H](Cc1c[nH]c2ccccc12)NC(=O)[C@@H](N)CCCCN)C(=O)N[C@@H](Cc1c[nH]c2ccccc12)C(=O)N[C@@H](Cc1c[nH]c2ccccc12)C(=O)N1CCC[C@H]1C(=O)N[C@@H](Cc1ccccc1)C(=O)N[C@@H](CC(C)C)C(=O)N[C@@H](CCCN=C(N)N)C(=O)N[C@@H](CCCN=C(N)N)C(N)=O [KWKLFKKIWWPFLRR]
MIC [5]: 2 µM (≈ 4.26 µg/mL) | MIC [6]: 2 µM (≈ 4.26 µg/mL) | MIC [7]: 4 µM (≈ 8.53 µg/mL) | MIC [8]: 4 µM (≈ 8.53 µg/mL) | MIC [9]: 2 µM (≈ 4.26 µg/mL) | MIC [10]: 4 µM (≈ 8.53 µg/mL) | MIC [11]: 4 µM (≈ 8.53 µg/mL)

SMILES: CC[C@H](C)[C@H](N)C(=O)N[C@@H](CC(C)C)C(=O)N1CCC[C@H]1C(=O)N[C@@H](Cc1ccccc1)C(=O)N[C@H](C(=O)N[C@@H](C)C(=O)NCC(=O)N[C@H](C(=O)N[C@@H](C)C(=O)N[C@@H](C)C(=O)N[C@@H](CCC(=O)O)C(=O)N[C@@H](CCSC)C(=O)N[C@@H](CCSC)C(=O)N[C@@H](CCC(N)=O)C(=O)N[C@@H](Cc1cnc[nH]1)C(=O)N[C@H](C(=O)N[C@@H](Cc1ccc(O)cc1)C(=O)N[C@H]1CSSC[C@@H](C(=O)O)NC(=O)[C@H](CCCCN)NC(=O)[C@H](CCCCN)NC(=O)[C@H](CO)NC(=O)[C@H](C)NC(=O)[C@H](C)NC1=O)C(C)C)C(C)C)C(C)C [ILPFVAGVAAEMMQHVYCAASKKC]
MIC [1]: 4.52 µM (≈ 11.6 µg/mL) | MIC [2]: 2.26 µM (≈ 5.8 µg/mL) | MIC [3]: 4.52 µM (≈ 11.6 µg/mL) | MIC [4]: 2.26 µM (≈ 5.8 µg/mL)

SMILES: CC[C@H](C)[C@@H]1NC(=O)[C@H](CCCCN)NC(=O)[C@@H](NC(=O)[C@H](CCCCN)NC(=O)[C@H](CC(C)C)NC(=O)[C@H](CC(N)=O)NC(=O)[C@H](CC(=O)O)NC(=O)[C@H](CC(C)C)NC(=O)[C@H](CC(C)C)NC(=O)[C@H](CC(N)=O)NC(=O)CNC(=O)[C@H](C)NC(=O)[C@H](CCC(=O)O)NC(=O)[C@H](CC(N)=O)NC(=O)[C@H](CCCCN)NC(=O)[C@H](C)NC(=O)[C@@H](NC(=O)[C@H](CC(N)=O)NC(=O)[C@H](CCCCN)NC(=O)[C@H](C)NC(=O)[C@@H](NC(=O)[C@H](CC(=O)O)NC(=O)[C@H](CCSC)NC(=O)[C@H](Cc2ccccc2)NC(=O)CN)[C@@H](C)O)C(C)C)CSSC[C@@H](C(=O)O)NC(=O)[C@H](C)NC(=O)[C@H](CCCCN)NC(=O)[C@H]([C@@H](C)O)NC1=O [GFMDTAKNVAKNEAGNLLDNLKCKITKAC]
MIC [1]: 2.02 µM (≈ 6.3 µg/mL) | MIC [2]: 2.02 µM (≈ 6.3 µg/mL) | MIC [3]: 4.05 µM (≈ 12.6 µg/mL) | MIC [4]: 4.05 µM (≈ 12.6 µg/mL)

SMILES: CC[C@H](C)[C@H](NC(=O)[C@@H]1CCCN1C(=O)[C@@H]1CCCN1)C(=O)N[C@H](C(=O)NCC(=O)N[C@@H](CO)C(=O)N[C@H](C(=O)N1CCC[C@H]1C(=O)N[C@@H](CC(C)C)C(=O)NCC(=O)N[C@@H](CS)C(=O)NCC(N)=O)[C@@H](C)CC)C(C)C [PPIVGSIPLGCG]
MIC [1]: > 128 µM | MIC [5]: ≥ 128 µM | MIC [6]: > 128 µM | MIC [12]: > 128 µM | MIC [10]: ≥ 128 µM | MIC [4]: > 128 µM

SMILES: CC(C)C[C@H](NC(=O)[C@H](CCCCN)NC(=O)[C@H](Cc1ccccc1)NC(=O)[C@@H](NC(=O)[C@@H](NC(=O)CNC(=O)[C@H](CC(C)C)NC(=O)[C@@H](N)Cc1ccccc1)C(C)C)C(C)C)C(=O)N[C@@H](C)C(=O)N[C@@H](CO)C(=O)N[C@@H](CCCCN)C(=O)N[C@H](C(=O)N[C@@H](Cc1ccccc1)C(=O)NCC(=O)N[C@@H](C)C(=O)N[C@H](C(=O)N[C@@H](Cc1ccccc1)C(=O)N[C@@H](CCCCN)C(=O)N[C@@H](CCCCN)C(=O)N[C@H](C(=O)O)C(C)C)C(C)C)C(C)C [FLGVVFKLASKVFGAVFKKV]
MIC [17]: 3.66 µM (≈ 8 µg/mL) | MIC [15]: 117 µM (≈ 256 µg/mL) | MIC [16]: 3.66 µM (≈ 8 µg/mL)

SMILES: CC(C)C[C@H](NC(=O)[C@@H](N)Cc1ccccc1)C(=O)NCC(=O)N[C@H](C(=O)N[C@H](C(=O)N[C@@H](Cc1ccccc1)C(=O)N[C@@H](CCCCN)C(=O)N[C@@H](CCCCN)C(=O)N[C@@H](C)C(=O)N[C@@H](CO)C(=O)N[C@@H](CCCCN)C(=O)N[C@H](C(=O)N[C@@H](Cc1ccccc1)C(=O)N[C@@H](CCCCN)C(=O)N[C@@H](C)C(=O)N[C@H](C(=O)N[C@@H](Cc1ccccc1)C(=O)NCC(=O)N[C@@H](CCCCN)C(=O)N[C@H](C(=O)O)C(C)C)C(C)C)C(C)C)C(C)C)C(C)C [FLGVVFKKASKVFKAVFGKV]
MIC [17]: 116 µM (≈ 256 µg/mL) | MIC [15]: 14.5 µM (≈ 32 µg/mL) | MIC [16]: 14.5 µM (≈ 32 µg/mL)

SMILES: CC[C@H](C)[C@H](NC(=O)[C@H](CS)NC(=O)[C@H](CCSC)NC(=O)[C@H](CS)NC(=O)[C@H](CCCN=C(N)N)NC(=O)[C@@H](N)CC(C)C)C(=O)N[C@@H](CCCCN)C(=O)N[C@@H](Cc1c[nH]c2ccccc12)C(=O)N[C@@H](Cc1c[nH]c2ccccc12)C(=O)N[C@@H](CO)C(=O)NCC(=O)N[C@@H](CCCCN)C(=O)N[C@@H](Cc1cnc[nH]1)C(=O)N1CCC[C@H]1C(=O)N[C@@H](CCCCN)C(=O)O [LRCMCIKWWSGKHPK]
MIC [18]: 7 µM (≈ 13.1 µg/mL)
